{
  "source": "paper PMC2041813",
  "about": "“Perturbation of the Dimer Interface of Triosephosphate Isomerase and its Effect on Trypanosoma cruzi” (PLoS Neglected Tropical Diseases, 2007)",
  "key": {"[1]": {"molecular_target": "TbTIM V118C (Trypanosoma brucei brucei, UniProt P04789, V117C)", "sequence (P04789 whole entry V117C)": "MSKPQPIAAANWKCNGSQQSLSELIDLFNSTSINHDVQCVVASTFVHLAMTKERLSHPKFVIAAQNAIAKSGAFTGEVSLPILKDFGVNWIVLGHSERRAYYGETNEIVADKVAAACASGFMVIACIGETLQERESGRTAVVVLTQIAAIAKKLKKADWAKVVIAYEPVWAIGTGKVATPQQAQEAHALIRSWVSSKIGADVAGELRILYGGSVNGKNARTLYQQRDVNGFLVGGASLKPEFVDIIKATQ", "test": "Inhibition of activity of TbTIM V118C mutant", "format": "biochemical", "procedure": "(§1) In all the experiments, a solution of DTDA in dimethylsulfoxide (DMSO) was used. The final DMSO concentration in all experiments was 10% (v/v).\n(§2) The indicated TIMs were incubated at pH 7.4 at a concentration of 5 µg per ml of 100 mM triethanolamine, 10 mM EDTA, 10% dimethyl sulfoxide (v/v), and DTDA at the concentrations indicated in the Results section for 2 hours at 36°C. At this time, an aliquot was withdrawn for assay of activity.\n(§3) Activity was determined in the direction of glyceraldehyde 3-phosphate to dihydroxyacetone phosphate. The decrease in absorbance at 340 nm was followed in a Hewlett Packard spectrophotometer at 25°C. The reaction mixture (1 ml) contained 100 mM triethanolamine, 10 mM EDTA, 0.2 mM NADH, 1 mM glyceraldehyde 3-phosphate, and 0.9 units α-glycerolphosphate dehydrogenase (pH 7.4). The reaction was started by the addition of TIM, usually 5 ng. The average specific activity of the various preparations of TcTIM used in this work was 2900±200 µmol/min/mg."}, "[2]": {"molecular_target": "T1, TcTIM C40A (Trypanosoma cruzi, UniProt P52270, C40A)", "T1 construct": "made in house", "T1 sequence (P52270 whole entry C40A)": "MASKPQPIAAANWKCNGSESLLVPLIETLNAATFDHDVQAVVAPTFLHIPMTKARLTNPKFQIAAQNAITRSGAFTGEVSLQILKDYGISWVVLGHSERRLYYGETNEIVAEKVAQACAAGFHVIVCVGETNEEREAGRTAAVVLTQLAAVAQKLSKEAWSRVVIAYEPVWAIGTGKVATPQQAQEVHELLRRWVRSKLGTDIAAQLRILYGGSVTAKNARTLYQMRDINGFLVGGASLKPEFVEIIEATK", "test": "Inhibition of activity of TcTIM C40A mutant", "format": "biochemical", "settings": "half-maximal inhibition of the initial phase (biphasic response), read-out: IC50, concentration of DTDA that induces 50% inhibition", "procedure": "as §1, §2, §3"}, "[3]": {"molecular_target": "T2, TbTIM (Trypanosoma brucei brucei, UniProt P04789)", "T2 construct": "made in house; host or cells: Escherichia coli", "test": "Inhibition of activity of TbTIM after 2 h incubation", "format": "biochemical", "procedure": "(§4) TcTIM [19] and TIMs from T. brucei, L. mexicana, and Homo sapiens were expressed in Escherichia coli and purified as described in the indicated references. After purification, the enzymes dissolved in 100 mM triethanolamine, 10 mM EDTA and 1 mM dithiothreitol (pH 8) were precipitated with ammonium sulfate (75% saturation) and stored at 4°C. Before use, the enzymes were extensively dialyzed against 100 mM triethanolamine/10 mM EDTA (pH 7.4). Protein was determined from their absorbance at 280 nm. The ε M^−1 cm^−1 was 36440 for TcTIM, and 33460 for TbTIM and LmTIM.\nas §1, §2\nas §3, with “The reaction was started by the addition of TIM, usually 5 ng. The average specific activity of the various preparations of TcTIM used in this work was 2900±200 µmol/min/mg.” left out"}, "[4]": {"molecular_target": "T3, LmTIM (Leishmania mexicana, UniProt P48499)", "T3 construct": "made in house; host or cells: Escherichia coli", "test": "Inhibition of activity of LmTIM after 2 h incubation", "format": "biochemical", "procedure": "as §4, §1, §2, §3"}, "[5]": {"molecular_target": "T4, TcTIM C15A (Trypanosoma cruzi, UniProt P52270, C15A)", "T4 construct": "made in house", "T4 sequence (P52270 whole entry C15A)": "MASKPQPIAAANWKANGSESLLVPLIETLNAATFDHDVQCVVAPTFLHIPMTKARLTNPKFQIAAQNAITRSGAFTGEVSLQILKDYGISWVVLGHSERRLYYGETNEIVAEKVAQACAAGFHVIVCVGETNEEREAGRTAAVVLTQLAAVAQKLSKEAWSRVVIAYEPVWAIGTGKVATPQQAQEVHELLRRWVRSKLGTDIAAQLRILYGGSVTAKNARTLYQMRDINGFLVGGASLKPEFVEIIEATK", "test": "Inhibition of activity of TcTIM C15A mutant", "format": "biochemical", "settings": "2 h, 36°C, 10% DMSO, read-out: IC50, concentration of DTDA that induces 50% inhibition", "procedure": "as §1, §2, §3"}, "[6]": {"test_system": "T. cruzi epimastigotes", "test": "Culture of T. cruzi epimastigotes, cell number up to 72 hours", "format": "cell-based, Trypanosoma cruzi", "procedure": "Where indicated in the Results section, the media was supplemented with the indicated concentrations of DTDA. The number of cells was recorded at various times for as long as 72 hours."}, "[7]": {"test_system": "E. coli cells that had TcTIM instead of their own TIM", "test": "Growth of E. coli devoid of endogenous TIM transformed with TcTIM", "format": "cell-based, Escherichia coli", "procedure": "(§5) E. coli JM103 cells were used as control. E. coli devoid of their endogenous TIM termed VR101 [10] were kindly provided by Dr. Gloria Saab-Rincón; these cells have a kanamicin resistant cassette. […] The strains were grown at 37°C in solid Luria-Bertani medium that had been supplemented with 50 µg of kanamycin and 50 µg of ampicilin per ml. One colony was transferred to M9 medium that had 10% DMSO and 50 µg of each of the latter antibiotics per ml. Growth of the various cells was followed throughout time by measuring the absorbance of the culture at 600 nm."}, "[8]": {"molecular_target": "T5, TIM from H. sapiens (HTIM) (Homo sapiens, UniProt P60174)", "T5 construct": "made in house; host or cells: Escherichia coli", "test": "Inhibition of activity of human TIM after 2 h incubation", "format": "biochemical", "procedure": "as §4, §1, §2, §3"}, "[9]": {"test_system": "E. coli JM103 cells", "test": "Growth of intact E. coli (own TIM) in minimal media", "format": "cell-based, Escherichia coli", "settings": "30 µM, M9 medium, 10% DMSO, absorbance at 600 nm", "procedure": "as §5"}, "[10]": {"molecular_target": "T6, TIM of T. cruzi (TcTIM) (Trypanosoma cruzi, UniProt P52270)", "T6 construct": "made in house; host or cells: Escherichia coli", "test": "Inhibition of activity of recombinant wild type TcTIM after 2 h incubation", "format": "biochemical", "procedure": "as §4, §1, §2, §3"}, "[11]": {"molecular_target": "T7, TcTIM C118V (Trypanosoma cruzi, UniProt P52270, C118V)", "T7 construct": "made in house", "T7 sequence (P52270 whole entry C118V)": "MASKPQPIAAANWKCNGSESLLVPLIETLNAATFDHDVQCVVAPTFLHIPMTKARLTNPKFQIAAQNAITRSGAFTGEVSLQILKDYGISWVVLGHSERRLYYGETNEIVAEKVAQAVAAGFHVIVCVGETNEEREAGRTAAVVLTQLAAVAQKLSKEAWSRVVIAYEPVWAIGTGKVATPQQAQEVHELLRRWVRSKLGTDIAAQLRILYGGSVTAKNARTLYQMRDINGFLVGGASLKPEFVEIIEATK", "test": "Inhibition of activity of TcTIM C118V mutant", "format": "biochemical", "settings": "2 h, 36°C, 10% DMSO, read-out: IC50, concentration of DTDA that induces 50% inhibition", "procedure": "as §1, §2, §3"}, "[12]": {"molecular_target": "T8, TcTIM C127A (Trypanosoma cruzi, UniProt P52270, C127A)", "T8 construct": "made in house", "T8 sequence (P52270 whole entry C127A)": "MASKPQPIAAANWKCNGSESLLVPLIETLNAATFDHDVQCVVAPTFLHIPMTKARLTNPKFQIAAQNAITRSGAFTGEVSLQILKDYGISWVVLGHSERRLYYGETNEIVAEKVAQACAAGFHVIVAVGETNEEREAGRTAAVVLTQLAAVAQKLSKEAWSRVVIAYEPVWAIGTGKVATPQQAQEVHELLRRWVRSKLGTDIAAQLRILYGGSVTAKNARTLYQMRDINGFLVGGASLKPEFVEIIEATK", "test": "Inhibition of activity of TcTIM C127A mutant", "format": "biochemical", "settings": "2 h, 36°C, 10% DMSO, read-out: IC50, concentration of DTDA that induces 50% inhibition", "procedure": "as §1, §2, §3"}, "[13]": {"test_system": "hemoglobin", "design": "method as in PMID 4078222", "settings": "cited from earlier work"}, "[14]": {"test_system": "rodents", "design": "method as in PMID 7265299", "settings": "cited from earlier work"}, "[15]": {"test_system": "rats", "design": "method as in PMID 4078223", "settings": "cited from earlier work"}, "[16]": {"settings": "concentrations as high as 200 µM"}},
  "note": "Like-named read-outs stand apart in the source and are kept apart here.",
  "data": [
    {"compound": "Nc1ccccc1SSc1ccccc1N", "note": "[DTDA, 2,2′-dithiodianiline]", "values": [
      {"measurement": "IC50", "setting": "[1]", "value": "> 200000", "unit": "nM"},
      {"measurement": "sensitivity of TbTIM V118C mutant activity", "setting": "[1]; 200 µM", "value": "insensitive"},
      {"measurement": "IC50", "setting": "[2]", "value": "1530 ± 450", "unit": "nM"},
      {"measurement": "effect on the activity of TbTIM", "setting": "[3]; 10 µM, 2 h, 36°C", "value": "did not affect"},
      {"measurement": "sensitivity of TbTIM activity", "setting": "[3]; [16]", "value": "completely insensitive"},
      {"measurement": "effect on the activity of LmTIM", "setting": "[4]; 10 µM, 2 h, 36°C", "value": "did not affect"},
      {"measurement": "IC50", "setting": "[4]; LmTIM, 2 h, 36°C, 10% DMSO, read-out: IC50, concentration of DTDA that induces 50% inhibition", "value": "> 200000", "unit": "nM"},
      {"measurement": "sensitivity of LmTIM activity", "setting": "[4]; [16]", "value": "completely insensitive"},
      {"measurement": "IC50", "setting": "[5]", "value": "346 ± 32", "unit": "nM"},
      {"measurement": "effect on growth of T. cruzi epimastigotes", "setting": "[6]; 4 µM, up to 72 hours", "value": "inhibition of growth"},
      {"measurement": "effect on survival of T. cruzi parasites in cell cultures", "setting": "[6]; 10 µM and 15 µM", "value": "causes death of parasites"},
      {"measurement": "effect on growth of T. cruzi epimastigotes", "setting": "[6]; 4–8 µM", "value": "significant inhibition of the growth"},
      {"measurement": "effect on the number of T. cruzi epimastigotes in culture", "setting": "[6]; concentrations higher than 8 µM, up to 72 hours", "value": "significant decrease in the number of cells"},
      {"measurement": "effect on growth of E. coli cells that relied on the function of TcTIM", "setting": "[7]; 30 µM, M9 medium, 10% DMSO, absorbance at 600 nm", "value": "effectively prevented"},
      {"measurement": "effect on the lag that precedes logarithmic growth of TcTIM transformed E. coli", "setting": "[7]; concentrations as low as 4 µM", "value": "important increase in the lag"},
      {"measurement": "permeability of biological membranes to the compound", "setting": "[7]; inferred from the effect on TcTIM transformed E. coli", "value": "permeable"},
      {"measurement": "effect on the activity of HTIM", "setting": "[8]; 10 µM, 2 h, 36°C", "value": "did not affect"},
      {"measurement": "IC50", "setting": "[8]; 2 h, 36°C, 10% DMSO, read-out: concentration for fifty percent inhibition of HTIM activity", "value": 98000, "unit": "nM"},
      {"measurement": "selectivity for TcTIM in reference to HTIM", "setting": "[8]; ratio of concentrations for 50% inhibition, HTIM vs TcTIM", "value": "~400", "unit": "times"},
      {"measurement": "effect on growth of E. coli cells that worked with their own TIM", "setting": "[9]", "value": "had no effect"},
      {"measurement": "IC50", "setting": "[10]; 2 h, 36°C, 10% DMSO, read-out: concentration that induced 50% inhibition of the activity of TcTIM", "value": 260, "unit": "nM"},
      {"measurement": "IC50", "setting": "[10]; TcTIM wild, 5 µg/ml enzyme, 2 h, 36°C, 10% DMSO, read-out: IC50, concentration of DTDA that induces 50% inhibition", "value": "258 ± 35", "unit": "nM"},
      {"measurement": "IC50", "setting": "[11]", "value": "208 ± 37", "unit": "nM"},
      {"measurement": "IC50", "setting": "[12]", "value": "57 ± 8", "unit": "nM"},
      {"measurement": "effect on hemoglobin", "setting": "[13]", "value": "irreversible oxidation of hemoglobin"}
    ]},
    {"compound": "diaminodiphenyldisulfide", "values": [
      {"measurement": "toxic effect on the kidney", "setting": "[14]", "value": "atrophy and hyperplasia in the kidney"},
      {"measurement": "toxic effect on the liver", "setting": "[14]", "value": "necrotic changes in the liver"}
    ]},
    {"compound": "Nc1ccc(SSc2ccc(N)cc2)cc1", "note": "[4,4′-diamino disulfide]", "values": [
      {"measurement": "toxic effect on administration to rats", "setting": "[15]", "value": "hematological alterations"}
    ]},
    {"compound": "Nc1ccccc1SCSc1ccccc1N", "note": "[2,2′-(methylenebisthioaniline)]", "values": [
      {"measurement": "IC50", "setting": "[10]; read-out: concentration required to inhibit the activity of TcTIM by 50%", "value": 50000, "unit": "nM"}
    ]}
  ]
}
